{
  "source": "BindingDB's records for doi:10.7270/Q2TX3CTT",
  "about": "(Broad Institute, 2010)",
  "note": "Counter-ions that a name gives are not always drawn.",
  "data": [
    {"target": "Glycogen synthase kinase-3 beta (Homo sapiens, UniProt P49841)", "sequence (P49841 whole entry)": "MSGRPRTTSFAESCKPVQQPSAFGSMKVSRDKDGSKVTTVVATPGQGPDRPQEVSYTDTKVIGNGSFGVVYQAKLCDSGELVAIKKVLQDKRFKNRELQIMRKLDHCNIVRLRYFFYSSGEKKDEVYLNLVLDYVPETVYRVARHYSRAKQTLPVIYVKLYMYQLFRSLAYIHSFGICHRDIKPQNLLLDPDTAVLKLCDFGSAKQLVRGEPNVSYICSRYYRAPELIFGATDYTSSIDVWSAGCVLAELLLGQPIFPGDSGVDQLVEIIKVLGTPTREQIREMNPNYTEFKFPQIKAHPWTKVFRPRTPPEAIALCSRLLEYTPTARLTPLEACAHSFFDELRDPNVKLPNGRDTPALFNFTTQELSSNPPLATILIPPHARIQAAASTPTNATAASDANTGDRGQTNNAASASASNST", "experiment": "GSK3beta kinase inhibitor potency, dose response, biochemical, luminescence, cell-free homogeneous, retest (AID 434954)", "units": {"EC50": "µM"}, "values": [
      {"smiles": "COc1cccc(C2CC(c3ccc(Cl)cc3)n3nc(N)nc3N2)c1", "note": "(stereo unspecified) [7-(4-chlorophenyl)-5-(3-methoxyphenyl)-1,5,6,7-tetrahydro-[1,2,4]triazolo[1,5-a]pyrimidin-2-amine]", "EC50": "> 300"},
      {"smiles": "O=C(OCCCN1CCCCC1)c1ccc(O)cc1", "note": "[3-piperidin-1-ylpropyl 4-hydroxybenzoate]", "EC50": "> 300"},
      {"smiles": "O=c1oc2cc(O)ccc2c2c1CCCC2", "note": "[3-hydroxy-7,8,9,10-tetrahydro-6H-benzo[c]chromen-6-one]", "EC50": "> 300"},
      {"smiles": "CCN1CCN(C(=O)c2cc3cc4cc(OC)ccc4nc3s2)CC1", "note": "[MLS000091315]", "EC50": "> 300"},
      {"smiles": "COCCOC(=O)C(C#N)c1nc2ccccc2nc1N1CCN(Cc2ccccc2)CC1", "note": "(stereo unspecified) [MLS000078656]", "EC50": "> 300"},
      {"smiles": "Cc1nnc2n(-c3ccccc3)c(=O)c3c4c(sc3n12)COC(C)(C)C4", "note": "[SMR000038952]", "EC50": "> 300"},
      {"smiles": "CCOc1cc(C=NN=C(N)N)ccc1OCc1ccc(Cl)cc1", "note": "[N''-{4-[(4-chlorobenzyl)oxy]-3-ethoxybenzylidene}carbonohydrazonic diamide]", "EC50": "> 300"},
      {"smiles": "Cc1c(O)ccc(C(=O)CN2CCN(c3ccc(F)cc3)CC2)c1O", "note": "[1-(2,4-dihydroxy-3-methylphenyl)-2-[4-(4-fluorophenyl)-1-piperazinyl]ethanone]", "EC50": "> 300"},
      {"smiles": "CCCn1c(SCC(=O)Nc2ccccc2OC)nnc1-c1ccco1", "EC50": "> 300"},
      {"smiles": "COCCNc1nc(SC)nc2sc3c(c12)CCN(C)C3", "note": "[N-(2-methoxyethyl)-7-methyl-2-methylsulfanyl-6,8-dihydro-5H-pyrido[4,5]thieno[1,2-c]pyrimidin-4-amine]", "EC50": 198},
      {"smiles": "COc1cc(/C=N/NC(=O)c2cccc(Cl)c2)ccc1Oc1ccc([N+](=O)[O-])cn1", "note": "[MLS000779574]", "EC50": "> 300"},
      {"smiles": "CCOC(=O)COn1c(=O)c(-c2cccs2)[n+]([O-])c2ccccc21", "EC50": "> 300"},
      {"smiles": "O=C(NCCc1ccccc1)c1cccc(Br)c1", "EC50": "> 300"},
      {"smiles": "CCSc1nnc(-c2cccs2)o1", "note": "[2-ethylsulfanyl-5-thiophen-2-yl-1,3,4-oxadiazole]", "EC50": "> 300"},
      {"smiles": "Nc1nonc1-n1nnc(C(=O)NN=Cc2ccc(Br)cc2)c1CN1CCOCC1", "note": "[SMR000646504]", "EC50": "> 300"},
      {"smiles": "CCCN(CCC)Cc1c(C(=O)NN=Cc2ccc(C)o2)nnn1-c1nonc1N", "note": "[1-(4-azanyl-1,2,5-oxadiazol-3-yl)-5-[(dipropylamino)methyl]-N-[(5-methylfuran-2-yl)methylideneamino]-1,2,3-triazole-4-carboxamide]", "EC50": "> 300"},
      {"smiles": "COc1ccc(-c2cc(C(=O)N3CCN(C(=O)c4ccco4)CC3)[nH]n2)cc1", "note": "[SMR000623613]", "EC50": "> 300"},
      {"smiles": "Cc1ccc2c(c1)Oc1ccc([N+](=O)[O-])cc1C(=O)N2", "note": "[7-methyl-2-nitrodibenzo[b,f][1,4]oxazepin-11(10H)-one]", "EC50": "> 300"},
      {"smiles": "c1cncc(-c2nc(NCc3cccs3)c3ccccc3n2)c1", "EC50": "> 300"},
      {"smiles": "COc1ccccc1-n1c(S)nnc1-c1ccco1", "note": "[MLS001214684]", "EC50": "> 300"},
      {"smiles": "Cc1cc(Br)ccc1NC(=O)CN1C(=O)CCC1=O", "EC50": "> 300"},
      {"smiles": "CNc1nc2c(N)ncnc2n1[C@H]1O[C@@H](CO)[C@H](O)[C@@H]1O", "note": "[(2S,3S,4R,5S)-2-[6-amino-8-(methylamino)purin-9-yl]-5-(hydroxymethyl)oxolane-3,4-diol]", "EC50": "> 300"},
      {"smiles": "COc1ccc(NC(=O)c2sc(SC)nc2N)cc1", "note": "[SMR000011170]", "EC50": "> 300"},
      {"smiles": "COc1cccc(C2C(C(=O)OCc3ccccc3)C(C)=Nc3ncnn32)c1OC", "note": "(stereo unspecified) [(phenylmethyl) 7-(2,3-dimethoxyphenyl)-5-methyl-1,7-dihydro-[1,2,4]triazolo[1,5-a]pyrimidine-6-carboxylate]", "EC50": 3.82},
      {"smiles": "O=C(CN1C(=O)COc2ccccc21)Nc1ccccc1F", "note": "[MLS001205921]", "EC50": "> 300"},
      {"smiles": "O=C(Nc1ccccc1)ON=C1c2ccccc2-c2ccccc21", "note": "[9H-fluoren-9-one O-(anilinocarbonyl)oxime]", "EC50": "> 300"},
      {"smiles": "Cc1cc(C)c(C)c(S(=O)(=O)Nc2ccccc2C(=O)NCCCn2ccnc2)c1C", "note": "[MLS000055504]", "EC50": "> 300"},
      {"smiles": "CCNc1nc(N)nc(-c2cc(Cl)ccc2O)n1", "note": "[(6E)-6-[6-amino-4-(ethylamino)-1H-1,3,5-triazin-2-ylidene]-4-chloro-1-cyclohexa-2,4-dienone]", "EC50": 3.56},
      {"smiles": "COc1ccc(-c2nn(CCC(=O)O)cc2/C=C/C(=O)O)cc1[N+](=O)[O-]", "note": "[3-[4-[(E)-2-carboxyethenyl]-3-(4-methoxy-3-nitrophenyl)pyrazol-1-yl]propanoic acid]", "EC50": "> 300"},
      {"smiles": "CCOc1ccc(NC(=O)Nc2cnccn2)cc1", "note": "[SMR000297712]", "EC50": "> 300"},
      {"smiles": "CC1CCCCC1NS(=O)(=O)c1ccc2c(c1)CC(=O)N2C", "note": "(stereo unspecified)", "EC50": "> 300"},
      {"smiles": "Cc1nc(NCCCn2ccnc2)c2ccccc2n1", "note": "[N-(3-imidazol-1-ylpropyl)-2-methyl-quinazolin-4-amine;hydrochloride]", "EC50": "> 300"},
      {"smiles": "COc1ccc(Nc2nc(N)c([N+](=O)[O-])c(NC3CCCCC3)n2)cc1", "EC50": "> 300"},
      {"smiles": "CN(C)CCc1cc2c(c3c1ccc1ccccc13)OCO2", "note": "[N,N-dimethyl-2-(5-naphtho[2,1-g][1,3]benzodioxolyl)ethanamine;hydrochloride]", "EC50": 25.9},
      {"smiles": "Cc1ccc(C(OCCN(C)C)c2cccc(C(F)(F)F)c2)cc1", "note": "(stereo unspecified) [(Z)-but-2-enedioic acid;N,N-dimethyl-2-[(4-methylphenyl)-[3-(trifluoromethyl)phenyl]methoxy]ethanamine]", "EC50": "> 300"},
      {"smiles": "CS(=O)(=O)N(CCc1ccccc1)CC(=O)N1CCN(c2ccccc2F)CC1", "EC50": "> 300"},
      {"smiles": "CNc1nc(N)c([N+](=O)[O-])c(NC2CCCCC2)n1", "note": "[4-N-cyclohexyl-2-N-methyl-5-nitropyrimidine-2,4,6-triamine]", "EC50": 7.52},
      {"smiles": "COC(=O)C1=C(C)N(Cc2ccccc2)C(NCc2ccc(OC)cc2)=N[C@H]1c1cccc(F)c1", "note": "[MLS000829932]", "EC50": "> 300"},
      {"smiles": "CN(Cc1nc2c(s1)CCCC2)C(=O)CCc1nnc(-c2ccc3c(c2)OCO3)o1", "note": "[SMR000318717]", "EC50": 50},
      {"smiles": "CCSc1ccc2nnc(-c3cccs3)n2n1", "note": "[6-ethylsulfanyl-3-thiophen-2-yl-[1,2,4]triazolo[4,3-b]pyridazine]", "EC50": 11.3},
      {"smiles": "O=C(COc1ccc(Cl)cc1)Nc1ncc([N+](=O)[O-])s1", "EC50": 26.3},
      {"smiles": "CCOc1ccccc1NC(=O)N1CCC2(CC1)OCCO2", "note": "[MLS000581263]", "EC50": "> 300"},
      {"smiles": "COc1cccc(NC2=CC(=O)CC(C)(C)C2)c1", "EC50": "> 300"},
      {"smiles": "Nc1ncc([N+](=O)[O-])c(N2CCCCCC2)n1", "note": "[MLS001174873]", "EC50": 18.4},
      {"smiles": "CCOC(=O)C1C(C)=Nc2ncnn2C1c1cc(Br)ccc1F", "note": "(stereo unspecified) [ethyl 7-(5-bromo-2-fluorophenyl)-5-methyl-1,7-dihydro-[1,2,4]triazolo[1,5-a]pyrimidine-6-carboxylate]", "EC50": 24},
      {"smiles": "CCN(CC)CCN1C(=O)C(=O)C(C(=O)c2ccc(S(=O)(=O)N3CCOCC3)cc2)C1c1ccccc1", "note": "(stereo unspecified) [(4E)-1-[2-(diethylamino)ethyl]-4-[hydroxy-[4-(4-morpholinylsulfonyl)phenyl]methylidene]-5-phenylpyrrolidine-2,3-dione]", "EC50": "> 300"},
      {"smiles": "COc1ccc(Cl)cc1-c1nc(N)nc(NC2CCCCC2)n1", "note": "[MLS000698409]", "EC50": "> 300"},
      {"smiles": "CC(C)(C)c1csc(NC(=O)c2cccnc2)n1", "note": "[SMR000496644]", "EC50": "> 300"},
      {"smiles": "Nc1nc(Nc2cccc(Cl)c2)nc(NCc2ccco2)c1[N+](=O)[O-]", "note": "[MLS000333252]", "EC50": 6.01},
      {"smiles": "COc1ccc(Nc2nc(N)c([N+](=O)[O-])c(N3CCOCC3)n2)cc1", "note": "[SMR000434818]", "EC50": 13.8},
      {"smiles": "Cc1cccc(/C=C2/Sc3ccc(C(=O)NCCCN4CCOCC4)cc3NC2=O)c1", "note": "[(2E)-2-[(3-methylphenyl)methylidene]-N-(3-morpholin-4-ylpropyl)-3-oxidanylidene-4H-1,4-benzothiazine-6-carboxamide]", "EC50": "> 300"},
      {"smiles": "Clc1ccc(CSc2nnc(-c3ccncc3)o2)cc1", "note": "[2-[(4-chlorobenzyl)thio]-5-(4-pyridyl)-1,3,4-oxadiazole]", "EC50": 25.9},
      {"smiles": "O=C(c1cc(COc2ccc(F)cc2F)on1)N1CCCC(c2ccccc2)C1", "note": "(stereo unspecified) [[5-[[2,4-bis(fluoranyl)phenoxy]methyl]-1,2-oxazol-3-yl]-(3-phenylpiperidin-1-yl)methanone]", "EC50": "> 300"},
      {"smiles": "O=c1cc(-c2ccc(O)cc2)oc2cc(O)cc(O)c12", "note": "[Naringenin, 18]", "EC50": 49.5},
      {"smiles": "CCOC(=O)c1c(C)[nH]c(C)c1C(=O)CN1C(=O)NC(CC(C)C)C1=O", "note": "(stereo unspecified) [ethyl 2,5-dimethyl-4-[2-[4-(2-methylpropyl)-2,5-dioxoimidazolidin-1-yl]acetyl]-1H-pyrrole-3-carboxylate]", "EC50": "> 300"},
      {"smiles": "O=C(Nc1ccccc1C(=O)N1CCOCC1)C1CCCO1", "note": "(stereo unspecified) [SMR000077483]", "EC50": "> 300"},
      {"smiles": "CC(=O)N1CCc2c(sc(NC(=O)Cc3ccc(F)cc3)c2C(N)=O)C1", "note": "[6-acetyl-2-[[2-(4-fluorophenyl)-1-oxoethyl]amino]-5,7-dihydro-4H-thieno[2,3-c]pyridine-3-carboxamide]", "EC50": 47.2},
      {"smiles": "COc1cc(C2C3=C(CC(C)(C)CC3=O)N=C(C)C2C#N)ccc1O", "note": "(stereo unspecified) [4-(4-hydroxy-3-methoxyphenyl)-2,7,7-trimethyl-5-oxo-1,4,6,8-tetrahydroquinoline-3-carbonitrile]", "EC50": "> 300"},
      {"smiles": "N#CC(=Cc1c[nH]nc1-c1ccc(Br)cc1)C(=O)O", "note": "[(Z)-3-[5-(4-bromophenyl)-1H-pyrazol-4-yl]-2-cyanoprop-2-enoic acid]", "EC50": "> 300"},
      {"smiles": "COc1ccccc1/C=C/C=C1\\Oc2c(ccc(O)c2CN2CCN(CCO)CC2)C1=O", "note": "[(2Z)-7-[[4-(2-hydroxyethyl)piperazin-1-yl]methyl]-2-[(E)-3-(2-methoxyphenyl)prop-2-enylidene]-6-oxidanyl-1-benzofuran-3-one]", "EC50": "> 300"},
      {"smiles": "O=C1Nc2ccccc2Nc2ccc([N+](=O)[O-])cc21", "note": "[SMR000550741]", "EC50": 25.4},
      {"smiles": "CCOC(=O)c1cnc2ccc(C(=O)OC)cc2c1Nc1ccc(C(=O)O)cc1", "note": "[SMR000273135]", "EC50": "> 300"},
      {"smiles": "CCN1CCN(CCCNC(=O)c2ccc3c(c2)NC(=O)c2ccccc2S3)CC1", "note": "[N-[3-(4-ethylpiperazin-1-yl)propyl]-6-oxo-5H-benzo[b][1,4]benzothiazepine-3-carboxamide]", "EC50": "> 300"},
      {"smiles": "Cc1c(CCOC(=O)CC23CC4CC(CC(C4)C2)C3)sc[n+]1CC(=O)c1ccc(Br)cc1", "note": "[SMR000155561]", "EC50": "> 300"},
      {"smiles": "CC1=NC2=C(C(=O)CC(C)(C)C2)C(c2ccc(O)cc2)C1C#N", "note": "(stereo unspecified)", "EC50": "> 300"},
      {"smiles": "COc1ccc(OC)c(Nc2oc3cc(=O)ccc-3cc2C(N)=O)c1", "note": "[2-[(Z)-2,5-Dimethoxy-phenylimino]-7-hydroxy-2H-chromene-3-carboxylic acid amide]", "EC50": 11.9}
    ]}
  ]
}
